# Measurements reported in ChEMBL document CHEMBL1152015, “One-step synthesis of radioiodinated biotin derivatives” (Bioorg Med Chem Lett, 1996).
# Columns and labels:
# [1] = Compound was evaluated for its affinity towards avidin
# [2] = compound was evaluated for its affinity towards streptavidin.
compound,measurement,setting,value
O=C(O)CCCC[C@@H]1SC[C@@H]2NC(=O)N[C@@H]21,Ka,[1],1e+16 M⁻¹
same,Ka,[2],1e+16 M⁻¹
